Measured values taken from patent US20260034075A1, “CHOLINE CARBOXYLIC ACID BASED IONIC LIQUIDS AS ANTIMICROBIAL AGENTS” (University of Mississippi, priority 2022, published 2026).
Like-named read-outs stand apart in the source and are kept apart here.

Legend:
Assay type in all cases: cell-based
E. coli [BL21(DE3)] = assay: Minimal Bactericidal Concentration (MBC) measurements, E. coli
Method: (§1) Bacterial Cell Culturing. Expression cells from frozen stock were streaked onto a kanamycin-selected lysogeny broth (LBKan) agar plate using a sterile loop and incubated overnight at 37° C. One colony was then taken from the plate the next day to inoculate 50 mL of sterile LBKan broth and shaken at 37° C. until reaching a growth concentration of 4×10^8 CFU/mL. This protocol was used for bacterial cell culture preparation in all of the experiments described below.
Minimal Bactericidal Concentration (MBC) Measurements. E. coli cells were cultured as described above and aliquoted into sterile tubes. 1%, 10%, and 100% (w/v) solutions of IL in sterile water (correcting for water percentage of the IL) were prepared and sonicated for 15 minutes at 40° C. before addition to the liquid culture. IL solutions were then added to E. coli at varying percentages (v/v), allowing calculation of the actual concentration of IL that was added to the culture. 100 μL of each solution was then spread onto an LBKan agar plate and incubated overnight at 37° C. […] Each IL solution was tested in triplicate.

[1] = test system: Human embryonic kidney (HEK-293) cells
Method: Cytotoxicity Studies. Human embryonic kidney (HEK-293) cells were treated in vitro with four of the top candidates (CADA 1:1, CADA 1:2, CA2DE 1:2, and CA3DE 1:2) to determine the concentration at which the IL dosage is toxic to human cells. 1% (w/v) solutions of each IL in sterile water were prepared similarly to the MBC experiments before addition at five different concentrations. The HEK cells were incubated with the IL treatments for 24 hours and then prepared with CellTiter-Glo(R) Luminescent Cell Viability reagent (100 μL per well). Brightfield microscopy images were used to qualitatively depict the concentration at which the cells were no longer viable, while a 96-well plate reader was used to quantitatively determine the percent viability of the cells at each concentration of the ILs. Quantitative measurements were performed in triplicate.
Human Biocompatibility Studies. […]
The viability of the cells was then quantified by preparing the IL-treated cells with 100 μL of CellTiter-Glo(R) Luminescent Cell Viability reagent in each well and measuring the luminescence on the plate reader. […] The results are expressed as percent viability and present as mean±standard deviation of three independent experiments (FIGS. 8A-8D). […]

E. coli = E. coli kinetic study (OD600 over 16 hours, first-order kinetics fit)
Method: E. coli Kinetic Study. A 96-well plate was filled with 180 μL of E. coli cells that were cultured as mentioned above and treated with 20 μL CADA 1:1 of concentrations ranging from the lethal concentration to one-sixteenth of that concentration to determine how the growth inhibition is affected with changing concentration of the IL. 20 μL of growth media was added to the “untreated” cells such that all wells contained a total volume of 200 μL. The plate was heated to 37° C. with triplicate OD600 measurements taken every 20 minutes over the course of 16 hours with a Biotek Synergy H1 microplate reader.
Bactericidal and Bacteriostatic Activity Kinetics. […] CADA 1:1 was employed instead of CADA 1:2 in this study because of its lowered turbidity in comparison. 180 μL of liquid E. coli culture was added to each well of a 96-well plate and brought up to 200 μL with either IL treatment or growth media alone if untreated. […] However, the cells treated with sublethal concentrations of IL still show what seem to be minor inhibitory interactions with the IL before exiting the lag phase and starting to grow. […] The turbidity of longer chain choline carboxylic acid-based ILs is quite high in aqueous solution and can falsely be determined as growth in OD measurements. Previous studies have shown that the critical micellar concentration (CMC) tends to […] with alkyl chain length and ionic strength, which could potentially affect antimicrobial efficacy. Therefore, IL solutions in sterile water at the same concentrations used to treat the bacteria were utilized as a control and subtracted from the wells with E. coli cells receiving IL treatment.
Integration of Growth Inhibition Following First-Order Kinetics. […] This was achieved by plotting In([A]T/[A]0) vs. time during the growth period to produce a linear representation of the logarithmic growth. Once the integrations were performed and plotted, rate constants were extracted with uncertainty from the slope of the trendlines. For the untreated cells and cells treated with sublethal concentrations, the logarithmic growth was positive, therefore, the rate constant should be positive. […] The rate of inhibition (k=0.0055±0.0002) was almost one-third of the growth rate of the cells that received no treatment, meaning that the inhibition is occurring immediately and for the duration of the study, suppressing the natural growth of the cells by 70%.

MRSA [BAA-1708] = assay: Growth inhibition / MBC of Methicillin Resistant Staphylococcus aureus (MRSA)
Method: as §1
Growth Inhibition of Methicillin Resistant Staphylococcus Aureus (MRSA). 10% (w/v) solutions of IL in sterile water were prepared similarly to the E. coli MBC experiments. ILs with anion chain lengths of 8-12 carbons at 1:2 mole ratio of choline to anion were added to MRSA at varying concentrations to determine the lowest concentration in which growth was inhibited. Concentrations were then compared to values obtained for E. coli for each solution.

[2] = Table 1, lowest IL concentration with no growth on LBKan agar plate, triplicate

| Compound | E. coli MBC (E. coli [BL21(DE3)]; [2]) [mM] | also measured |
| --- | --- | --- |
| CCCCCCCCCC(=O)[O-].C[N+](C)(C)CCO [CADA 1:1, Choline Decanoate 1:1] | 3.48 | percent viability [1]: over 97%; suppression of the natural growth of the cells (E. coli; lethal concentration): 70%; rate of inhibition k (E. coli; lethal concentration, first-order fit of OD600): 0.0055±0.0002; OD600 course at lethal concentration (E. coli; lethal concentrations, 16 hours): inhibited immediately with a steady decrease in OD600; delay of normal growth after the untreated cells entered the log phase (E. coli; sublethal doses, extended lag phase): about two; growth rate relative to the rate of the untreated cells (E. coli; sublethal treatment): 20-25%; growth rate constant k (E. coli; sublethal treatment, first-order fit of OD600): 0.0039±0.0002 |
| CCCCC(=O)[O-].C[N+](C)(C)CCO [CAPA 1:1, Choline Pentanoate 1:1] | 792.10 |  |
| CCCCCCCCCCC(=O)[O-].C[N+](C)(C)CCO [CAUA 1:1, Choline Undecanoate 1:1] | 15.50 |  |
| Choline 2-Butenoate 1:2 [CA2BE 1:2] | 158.97 |  |
| Choline 2-Decenoate 1:2 [CA2DE 1:2] | 0.77 |  |
| Choline 2-Heptenoate 1:2 [CA2HPE 1:2] | 21.33 |  |
| Choline 2-Hexenoate 1:2 [CA2HE 1:2] | 54.37 |  |
| Choline 2-Octenoate 1:2 [CA2OE 1:2] | 5.18 |  |
| Choline 2-Pentenoate 1:2 [CA2PE 1:2] | 120.10 |  |
| Choline 2-Undecenoate 1:2 [CA2UE 1:2] | 1.78 | E. coli MBC (E. coli [BL21(DE3)]; Table 2, comparison with MRSA): 1.78 mM; MRSA MBC (MRSA [BAA-1708]; Table 2, 1:2 mole ratio ILs): 1.06 mM |
| Choline 3-Butenoate 1:2 [CA3BE 1:2] | 153.33 |  |
| Choline 3-Decenoate 1:2 [CA3DE 1:2] | 0.57 | E. coli MBC (E. coli [BL21(DE3)]; Table 2, comparison with MRSA): 0.57 mM; MRSA MBC (MRSA [BAA-1708]; Table 2, 1:2 mole ratio ILs): 1.13 mM |
| Choline 3-Heptenoate 1:2 [CA3HPE 1:2] | 18.93 |  |
| Choline 3-Hexenoate 1:2 [CA3HE 1:2] | 52.00 |  |
| Choline 3-Mercaptopropionate 1:2 [CA3MP 1:2] | 101.07 |  |
| Choline 3-Octenoate 1:2 [CA3OE 1:2] | 2.16 |  |

| Compound | E. coli MBC (E. coli [BL21(DE3)]; [2]) [mM] | also measured |
| --- | --- | --- |
| Choline 3-Pentenoate 1:2 [CA3PE 1:2] | 134.83 |  |
| Choline Acetoxyacetate 1:2 [CAAA 1:2] | 12.41 |  |
| Choline Butanoate 1:2 [CABA 1:2] | 152.70 |  |
| Choline Decanoate 1:2 [CADA 1:2] | 0.56 | E. coli MBC / killing efficacy concentration (E. coli [BL21(DE3)]): 0.56 mM; E. coli MBC (E. coli [BL21(DE3)]; Table 2, comparison with MRSA): 0.56 mM; MRSA MBC (MRSA [BAA-1708]; Table 2, 1:2 mole ratio ILs): 2.23 mM; percent viability [1]: > 60% |
| Choline Dodecanoate 1:2 [CADDA 1:2] | 8.34 | E. coli MBC (E. coli [BL21(DE3)]; Table 2, comparison with MRSA): 8.34 mM; MRSA MBC (MRSA [BAA-1708]): 0.99 mM; MRSA MBC (MRSA [BAA-1708]; Table 2, 1:2 mole ratio ILs): 0.99 mM |
| Choline Ethoxyacetate 1:2 [CAEA 1:2] | 89.20 |  |
| Choline Fumarate 1:2 [CAFU 1:2] | 10.05 |  |
| Choline Heptanoate 1:2 [CAHPA 1:2] | 16.33 |  |
| Choline Hexanoate 1:2 [CAHA 1:2] | 28.23 |  |
| Choline Malate 1:2 [CAMI 1:2] | 91.80 |  |
| Choline Maleate 1:2 [CAME 1:2] | 20.00 |  |
| Choline Malonate 1:2 [CAMA 1:2] | 21.60 |  |
| Choline Nonanoate 1:2 [CANA 1:2] | 1.01 |  |
| Choline Octanoate 1:2 [CAOA 1:2] | 4.91 |  |
| Choline Pentanoate 1:2 [CAPA 1:2] | 110.37 |  |
| Choline Undecanoate 1:2 [CAUA 1:2] | 1.98 | E. coli MBC (E. coli [BL21(DE3)]; Table 2, comparison with MRSA): 1.98 mM; MRSA MBC (MRSA [BAA-1708]; Table 2, 1:2 mole ratio ILs): 2.10 mM |
